Laboratory results published in PubChem BioAssay AID1963959 (Molecular Pharmacology Branch, DTP, NCI, 2024).
Several values for one entry are separate records, joined by “and”; a condition that tells them apart may be missing. Equal values may be shown once.

System: T-47D spheroids with HUVEC/MSC, viability
Test: Anticancer human tumor T-47D cell line growth inhibition [PI3K];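 also: spheroids exposed to agents for seven days before reading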;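 as to viability, T/C: percent of DMSO vehicle control luminescence so 100% = untreated growth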
Details: for viability, T/C: stronger effect = lower value
Source text: Combinatorial screen of targeted agents with the PI3K inhibitors inavolisib, alpelisib, duvelisib, and copanlisib in multi-cell type tumor spheroids
A high-throughput screen of multi-cell type tumor spheroids was designed to identify active combinations of targeted small molecules and PI3K pathway inhibitors. Complex spheroids include a stromal component modeled by human endothelial cells (HUVEC) and fibroblasts modeled by human mesenchymal stem cells (MSCs). The concentration ranges selected for each drug and investigational agent were based upon clinically achievable concentrations if the clinical Cmax of the agent was known.
Compounds. The drugs and investigational agents: inavolisib (NSC800729), alpelisib (NSC765974), duvelisib (NSC772469), copanlisib (NSC816437), ipatasertib (NSC767898), afuresertib (NSC778305), talazoparib (NSC767125), sapanisertib (NSC764658), selumetinib (NSC741078), tovorafenib (DAY101, NSC766906), vemurafenib (NSC761431), ravoxertinib (NSC781343), sotorasib (NSC818433), MRTX1133 (NSC 836407), abemaciclib (NSC 768073), palbociclib (NSC758247), venetoclax (NSC 766270), SY5609 (NSC837396), enzalutamide (NSC755605), and darolutamide (NSC825331), were obtained from the National Cancer Institute (NCI) Developmental Therapeutics Program Chemical Repository. The FDA-approved anticancer drug set is available from the NCI Developmental Therapeutics Program. […] The stock solutions were prepared in dimethyl sulfoxide (DMSO, Sigma-Aldrich, St. Louis, MO, cat. D2650) at 800-fold the tested concentration and stored at -70 degrees C prior to their use. All drugs and investigational agents were tested over a range starting from a high concentration at or near the clinical Cmax and decreasing in half-log increments. If the clinical Cmax for an agent had not been determined, the highest concentration tested was 10 microM.
Cell Culture. All cells were maintained in an incubator at 37 degrees C and 5% CO2 with 95% humidity. The PDC lines were cultured according to standard operating procedures established by the NCI PDMR (https://pdmr.cancer.gov/sops/default.htm). All PDCs were thawed and cultured in Matrigel-coated flasks prepared with a working solution of 1X Ham's F-12 nutrient mix, without supplementation (Invitrogen, Waltham, MA, cat. 11765054), 100 U/mL penicillin-streptomycin (Invitrogen, cat. 15140122), and 2.5% Matrigel (Corning Inc., Corning, NY, cat. 354248) for the first three passages. The 354836-022-R-J1-PDC, 475296-252-R-J1-PDC, and 997726-040-R-J2-PDC lines were cultured in 6A media, which includes advanced DMEM/F-12 (Thermo Fisher Scientific, cat. 12634028), 10 mM HEPES (Thermo Fisher Scientific, cat. 15630080), 1X GlutaMAX supplement (Thermo Fisher Scientific, cat. 35050061), 0.1 mg/mL primocin (InvivoGen, San Diego, CA, cat. ant-pm-2), 10% defined fetal bovine serum, heat inactivated (HyClone Laboratories Inc., Logan, UT, cat. SH30070.03HI), 50% L-WRN conditioned media (ATCC, cat. CRL-3276), 1.25 mM N-Acetyl-L-cysteine (Sigma-Aldrich, cat. A9165), 10 mM nicotinamide (Sigma-Aldrich, cat. N0636), 1X B-27 supplement (Thermo Fisher Scientific, cat. 17504044), 1X N-2 supplement (Thermo Fisher Scientific, cat. 17502048), and 10 microM Y-27632 dihydrochloride (Tocris Bioscience, Bristol, United Kingdom, cat. 1254). The 624824-186-R-J2-PDC line was cultured in 6C/Colon 1B media, which includes all 6A media components plus 50 ng/mL human EGF recombinant protein (Thermo Fisher Scientific, cat. PHG0311). […]

[1] = curve of first compound, second compound 0.0316 µM
[2] = curve of first compound, second compound 0.1 µM
[3] = curve of first compound, second compound 0.316 µM
[4] = curve of first compound, second compound 1 µM
[5] = second compound 0.0316 µM, first compound 0.0316 µM
[6] = second compound 0.0316 µM, first compound 0.1 µM
[7] = second compound 0.0316 µM, first compound 0.316 µM
[8] = second compound 0.0316 µM, first compound 1 µM
[9] = second compound 0.0316 µM, first compound 3.16 µM
[10] = second compound 0.0316 µM, first compound 10 µM
[11] = second compound 0.1 µM, first compound 0.0316 µM
[12] = second compound 0.1 µM, first compound 0.1 µM
[13] = second compound 0.1 µM, first compound 0.316 µM
[14] = second compound 0.1 µM, first compound 1 µM
[15] = second compound 0.1 µM, first compound 3.16 µM
[16] = second compound 0.1 µM, first compound 10 µM
[17] = second compound 0.316 µM, first compound 0.0316 µM
[18] = second compound 0.316 µM, first compound 0.1 µM
[19] = second compound 0.316 µM, first compound 0.316 µM
[20] = second compound 0.316 µM, first compound 1 µM
[21] = second compound 0.316 µM, first compound 3.16 µM
[22] = second compound 0.316 µM, first compound 10 µM
[23] = second compound 1 µM, first compound 0.0316 µM
[24] = second compound 1 µM, first compound 0.1 µM
[25] = second compound 1 µM, first compound 0.316 µM
[26] = second compound 1 µM, first compound 1 µM
[27] = second compound 1 µM, first compound 3.16 µM
[28] = second compound 1 µM, first compound 10 µM
[29] = curve of first compound, second compound 0.00316 µM
[30] = curve of first compound, second compound 0.01 µM
[31] = second compound 0.00316 µM, first compound 0.0316 µM
[32] = second compound 0.00316 µM, first compound 0.1 µM
[33] = second compound 0.00316 µM, first compound 0.316 µM
[34] = second compound 0.00316 µM, first compound 1 µM
[35] = second compound 0.00316 µM, first compound 3.16 µM
[36] = second compound 0.00316 µM, first compound 10 µM
[37] = second compound 0.01 µM, first compound 0.0316 µM
[38] = second compound 0.01 µM, first compound 0.1 µM
[39] = second compound 0.01 µM, first compound 0.316 µM
[40] = second compound 0.01 µM, first compound 1 µM
[41] = second compound 0.01 µM, first compound 3.16 µM
[42] = second compound 0.01 µM, first compound 10 µM

CNC(=O)c1ccc(N2C(=S)N(c3ccc(C#N)c(C(F)(F)F)c3)C(=O)C2(C)C)cc1F + Cc1nc(NC(=O)N2CCCC2C(N)=O)sc1-c1ccnc(C(C)(C)C(F)(F)F)c1
IC50 [1]: > 10 µM
IC50 [2]: > 10 µM
IC50 [3]: > 10 µM
IC50 [4]: > 10 µM
IC50 (curve of first compound, second compound 3.16 µM): > 10 µM
IC50 (curve of first compound, second compound 10 µM): < 0.0316 µM
viability, T/C [5]: 113%
viability, T/C [6]: 82%
viability, T/C [7]: 97%
viability, T/C [8]: 87.1%
viability, T/C [9]: 91.1%
viability, T/C [10]: 87.9%
viability, T/C [11]: 111%
viability, T/C [12]: 96.5%
viability, T/C [13]: 93.2%
viability, T/C [14]: 88.4%
viability, T/C [15]: 97.7%
viability, T/C [16]: 84.9%
viability, T/C [17]: 91.8%
viability, T/C [18]: 85%
viability, T/C [19]: 94.3%
viability, T/C [20]: 85.9%
viability, T/C [21]: 101%
viability, T/C [22]: 88.5%
viability, T/C [23]: 82.9%
viability, T/C [24]: 96.4%
viability, T/C [25]: 85.1%
viability, T/C [26]: 78.3%
viability, T/C [27]: 91.9%
viability, T/C [28]: 66.8%
viability, T/C (second compound 3.16 µM, first compound 0.0316 µM): 72%
viability, T/C (second compound 3.16 µM, first compound 0.1 µM): 76%
viability, T/C (second compound 3.16 µM, first compound 0.316 µM): 72.2%
viability, T/C (second compound 3.16 µM, first compound 1 µM): 69.5%
viability, T/C (second compound 3.16 µM, first compound 3.16 µM): 62.3%
viability, T/C (second compound 3.16 µM, first compound 10 µM): 58%
viability, T/C (second compound 10 µM, first compound 0.0316 µM): 43.2%
viability, T/C (second compound 10 µM, first compound 0.1 µM): 41.2%
viability, T/C (second compound 10 µM, first compound 0.316 µM): 40.5%
viability, T/C (second compound 10 µM, first compound 1 µM): 44.5%
viability, T/C (second compound 10 µM, first compound 3.16 µM): 33.7%
viability, T/C (second compound 10 µM, first compound 10 µM): 30.4%

CC(C)NCC(C(=O)N1CCN(c2ncnc3c2C(C)CC3O)CC1)c1ccc(Cl)cc1 (stereo unspecified) + CC(Nc1ccc2c(c1)OCCn1cc(N3C(=O)OCC3C(F)F)nc1-2)C(N)=O
IC50 [29]: 8.76 µM
IC50 [30]: > 10 µM
IC50 [1]: > 10 µM
IC50 [2]: 3.89 µM
IC50 [3]: 2.42 µM
IC50 [4]: 0.0626 µM
viability, T/C [31]: 109%
viability, T/C [32]: 96.1%
viability, T/C [33]: 82.7%
viability, T/C [34]: 80.5%
viability, T/C [35]: 60.5%
viability, T/C [36]: 48%
viability, T/C [37]: 94.5%
viability, T/C [38]: 94.2%
viability, T/C [39]: 91%
viability, T/C [40]: 73.6%
viability, T/C [41]: 66.6%
viability, T/C [42]: 59%
viability, T/C [5]: 102%
viability, T/C [6]: 95.5%
viability, T/C [7]: 84.7%
viability, T/C [8]: 68.5%
viability, T/C [9]: 53.7%
viability, T/C [10]: 51.6%
viability, T/C [11]: 94.1%
viability, T/C [12]: 81.2%
viability, T/C [13]: 75.7%
viability, T/C [14]: 59.3%
viability, T/C [15]: 51.8%
viability, T/C [16]: 43.6%
viability, T/C [17]: 63.2%
viability, T/C [18]: 64%
viability, T/C [19]: 56.7%
viability, T/C [20]: 53.5%
viability, T/C [21]: 50.1%
viability, T/C [22]: 41.6%
viability, T/C [23]: 51.7%
viability, T/C [24]: 46.8%
viability, T/C [25]: 52.2%
viability, T/C [26]: 41.4%
viability, T/C [27]: 42.3%
viability, T/C [28]: 44.3%

C[C@@H](NC(=O)c1ncnc(N)c1Cl)c1ncc(C(=O)Nc2cc(C(F)(F)F)c(Cl)cn2)s1
viability, T/C (compound 0.0316 µM): 93.7% [middle of 4 runs]
viability, T/C (compound 0.316 µM): 89.2% and 106% (2×) and 91.6%
viability, T/C (compound 3.16 µM): 99.1% [middle of 4 runs]
viability, T/C (compound 10 µM): 91% [middle of 4 runs]
IC50 (curve of compound): > 10 µM

C#Cc1c(F)ccc2cc(O)cc(-c3ncc4c(N5CC6CCC(C5)N6)nc(OCC56CCCN5CC(F)C6)nc4c3F)c12 (stereo unspecified) + CC(Nc1ccc2c(c1)OCCn1cc(N3C(=O)OCC3C(F)F)nc1-2)C(N)=O
IC50 [29]: > 10 µM
IC50 [30]: > 10 µM
IC50 [1]: > 10 µM
IC50 [2]: > 10 µM
IC50 [3]: > 10 µM
IC50 [4]: > 10 µM
viability, T/C [31]: 96.3%
viability, T/C [32]: 85.3%
viability, T/C [33]: 85.6%
viability, T/C [34]: 78.3%
viability, T/C [35]: 90.9%
viability, T/C [36]: 84.1%
viability, T/C [37]: 107%
viability, T/C [38]: 82.3%
viability, T/C [39]: 102%
viability, T/C [40]: 100%
viability, T/C [41]: 95.2%
viability, T/C [42]: 92.9%
viability, T/C [5]: 83.3%
viability, T/C [6]: 77.8%
viability, T/C [7]: 97.8%
viability, T/C [8]: 79%
viability, T/C [9]: 94.6%
viability, T/C [10]: 89.1%
viability, T/C [11]: 99.8%
viability, T/C [12]: 83%
viability, T/C [13]: 79%
viability, T/C [14]: 88.6%
viability, T/C [15]: 91.1%
viability, T/C [16]: 81.4%
viability, T/C [17]: 62.7%
viability, T/C [18]: 70.7%
viability, T/C [19]: 76.8%
viability, T/C [20]: 59.9%
viability, T/C [21]: 70.8%
viability, T/C [22]: 61.3%
viability, T/C [23]: 48.8%
viability, T/C [24]: 55.3%
viability, T/C [25]: 61.2%
viability, T/C [26]: 43.7%
viability, T/C [27]: 46.1%
viability, T/C [28]: 62.5%

Cn1ncnc1[C@H]1c2n[nH]c(=O)c3cc(F)cc(c23)N[C@@H]1c1ccc(F)cc1
viability, T/C (compound 0.000316 µM): 103% [middle of 4 runs]
viability, T/C (compound 0.001 µM): 98.3% [middle of 4 runs]
viability, T/C (compound 0.01 µM): 109% [middle of 4 runs]
viability, T/C (compound 0.0316 µM): 101% [middle of 4 runs]
IC50 (curve of compound): > 0.1 µM
